Laboratory results reported in patent US9359419B2, “Treatment of vascular complications of diabetes” (priority 2010, dated 2016).
“Also recorded” adds a separate entry of the source.

Experiments:
[1] = system: U46619-contracted septal coronary arteries; assay: Acetylcholine-induced vasorelaxation of septal coronary arteries from STZ-induced diabetic rats; format: in vivo, rat; conditions: TIP peptide 125 μg i.p. every three days for four weeks, vs STZ group, n=3
Text: and tested for their ability to relax in response to progressive concentrations of acetylcholine. The vasorelaxant responses are expressed as percent of maximal control relaxation.

[2] = system: perfused rat hearts; assay: Cardiac permeability by BSA-FITC perfusion (Langendorff method) of hearts from STZ-treated rats; format: in vivo; conditions: 125 μg/rat over 4 wks i.p.
Protocol: Following the same protocol as above, hearts from Ctrl, STZ-treated and TIP/STZ treated rats were isolated after 4 wks. The hearts were perfused using the Langendorff method with BSA-FITC (Di Napoli et al., Nitric Oxide 16 (2007), 228-236). Hearts were subsequently frozen in liquid nitrogen and slices were cut with a microtome. Subsequently, fluorescence was assessed in 4 slices of each heart and cumulative fluorescence responses were recorded.

[3] = system: STZ-treated rats; conditions: rat, in vivo
Protocol: In this experiment, Male Sprague-Dawley rats (240 to 265 g, n=3) were divided into three groups: 1. Control rats receiving injections of vehicle alone, 2. rats rendered diabetic with STZ (50 mg/kg, intraperitoneally) and 3. […] Rats with blood levels >350 mg/dL were considered to be diabetic.

[4] = system: fresh human whole blood; assay: Release of Interleukin-6 from fresh human whole blood (ELISA); format: cell-based; design: Concentration of IL-6: unit of the concentration uncertain; conditions: for Concentration of IL-6: 24 hours, n = 5
Protocol: It was the goal of this study to determine the pro-inflammatory signalling capacity of the AP301 peptide. Whole blood cultures were used and the secretion of interleukin-6 (IL-6), a very sensitive marker for pro-inflammatory stimulation, was quantified by ELISA.
• Test system 25 ml of freshly taken heparinized blood from 5 healthy volunteers (HV) was used in the assays. […]
Whole blood (WB) cultures were done by pipetting 1 ml of WB into wells of 24 well plates. In each experiment unstimulated and control-stimulated cultures were included.
If possible the substances and stimulants to be investigated were always added in an identical volume to each well of a given experiment, not greater than 10% of the total volume contained in a well. Unstimulated controls received PBS. Volume adjustments and dilutions for different treatments were also done with PBS.
The content of each well was mixed and the plates incubated at 37° C. and 5% CO2 for 24 hours. After incubation the content of each well was transferred to a fresh 1.5 ml microtube and centrifuged at 8000-9000×g for 15 minutes. The supernatant of each sample was transferred individually to two 1.5 ml microtubes and kept at −20° C. until use.
Interleukin-6 was quantified by a specific ELISA (Human IL-6 ELISA Set, BD Biosciences, Cat. No. 555220) employing an anti-human IL-6 antibody as capture antibody, a biotinylated anti-human IL-6 detection antibody, avidin-horseradish peroxidase conjugate as enzyme reagent, and recombinant IL-6 as standard. Absorbance measurement was performed at 450 nm using the Packard FusionReader.
The results for each plate were stored and evaluated using the FusionDataAnalysis software. […]

In the case of C[C@@H]1NC(=O)CNC(=O)[C@H](CCC(=O)O)NC(=O)[C@@H]2CCCN2C(=O)[C@H]([C@@H](C)O)NC(=O)[C@H](CCC(=O)O)NC(=O)[C@H](CCCNC(=N)N)NC(=O)[C@H](CCC(N)=O)NC(=O)CNC(=O)[C@@H](N)CSSC[C@@H](C(=O)O)NC(=O)[C@H](Cc2ccc(O)cc2)NC(=O)[C@H](Cc2c[nH]c3ccccc23)NC(=O)[C@@H]2CCCN2C(=O)[C@H](CCCCN)NC(=O)[C@H](C)NC(=O)[C@H](CCC(=O)O)NC1=O [AP301, (NH2) Cys-Gly-Gln-Arg-Glu-Thr-Pro-Glu-Gly-Ala-Glu-Ala-Lys-Pro-Trp-Tyr-Cys (COOH)], the “acetylcholine-induced vasorelaxation response in septal coronary arteries” value [1] is reported as “significantly improved the vasorelaxation response”, the “cardiac permeability (Albumin-FITC incorporation)” value [2] is reported as “significantly inhibits cardiac hyperpermeability” and the “cardiac permeability (Albumin-FITC incorporation)” value ([2]; listed as TIP peptide) is reported as “inhibits STZ-associated cardiac permeability”. The weight [3] was “increased weight loss”, the “Concentration of IL-6” value ([4]; concentration 1 ng/ml) was “less than 0.5 pg/ml” and the “Concentration of IL-6” value ([4]; concentration 3 ng/ml) was “less than 0.5 pg/ml”. For the same compound, the “Concentration of IL-6” value ([4]; concentration 1 (unit uncertain)) was “less than 0.5 pg/ml”, the “Concentration of IL-6” value ([4]; concentration 10 (unit uncertain)) was “less than 0.5 pg/ml” and the “IL-6 secretion (pro-inflammatory response)” value ([4]; whole blood cultures from five healthy donors, all concentrations tested (10 μg/ml to 1 ng/ml)) was “did not induce any detectable level of IL-6 secretion; also recorded: did not induce a pro-inflammatory response”.
